Experimental data from patent US9243039B2, “Bipartite inhibitors of bacterial RNA polymerase: Sal-target-inhibitor/nucleoside-analog-inhibitor conjugates” (priority 2012, dated 2016).
≈ marks a conversion by molar mass, not a printed value. *1 amine or outer side, *2 acyl side, *3 side chain or, on linkers, in order; H or OH if unused. Where a SMILES comes first, the peptide text is derived from it. Bridges are numbered along the chain shown (N, C = ends). [ ]: non-standard residue; d: D form. The star is where a group is joined. X4 = C[C@@H](Oc1ccc([C@H](N[*:1])C(=O)[*:2])cc1)[C@](O)(/C=C/C(=O)[*:3])CNCCCCCCNC(=O)OC(C)(C)C; X5 = C[C@@H](Oc1ccc([C@H](N[*:1])C(=O)[*:2])cc1)[C@](O)(/C=C/C(=O)[*:3])CNCCCNC(=O)OC(C)(C)C; X2 = CCCCOC[C@@](O)(/C=C/C(=O)[*:3])[C@@H](C)Oc1ccc([C@H](N[*:1])C(=O)[*:2])cc1; X6 = CCCCOC(/C=C/C(=O)[*:3])(CO)[C@@H](C)Oc1ccc([C@H](N[*:1])C(=O)[*:2])cc1; X3 = C[C@@H](Oc1ccc([C@H](N[*:1])C(=O)[*:2])cc1)[C@](O)(/C=C/C(=O)[*:3])CO; Pentanoyl(2R-Me,3R-OH,4-Me) = CC(C)[C@@H](O)[C@@H](C)C(=O)*; d(aIle) = CC[C@H](C)[C@@H](N)C(=O)O; d(aThr) = C[C@@H](O)[C@@H](N)C(=O)O; NMeF = CN[C@@H](Cc1ccccc1)C(=O)O

Experiments:
[1] = system: Escherichia coli D21f2toIC; experiment: Antibacterial activity, broth microdilution, Escherichia coli D21f2tolC; format: cell-based; settings: Escherichia coli, D21F2TOIC, read-out: MIC50 Escherichia coli D21f2toIC
Excerpt: (§1) Antibacterial activity was quantified using broth microdilution [Clinical and Laboratory Standards Institute (CLSUNCCLS), Methods for Dilution Antimicrobial Susceptibility Tests for Bacteria That Grow Aerobically; Approved Standard, Eighth Edition. CLIS Document M07-A8 (CLIS, Wayne Pa.), 2009]. Assays with Enterobacter cloacae ATCC 13047, Pseudomonas aeruginosa ATCC10145, and Escherichia coli D21f2to1C, employed a starting cell density of 2-5×10^5 cfu/ml, Mueller Hinton II cation adjusted broth (BD Biosciences, Inc.), and an air atmosphere. Assays with Haemophilus influenzae ATCC49247 and Neisseria gonorrhoeae ATCC 19424 employed a starting cell density of 2-5×10^5 cfu/ml, Haemophilus Test Medium broth (Barry et al., 1993) and a 5% CO2/95% air atmosphere. MIC50 was defined as the minimal concentration resulting in ≧50% inhibition of bacterial growth.

[2] = molecular target: Escherichia coli RNAP (Escherichia coli, UniProt P0A8T7+P0A8V2); experiment: Fluorescence-detected RNAP assay, Escherichia coli RNAP; format: biochemical; settings: fluorescent-detected RNAP assays
Description: Fluorescence-detected RNAP assays with Escherichia coli RNAP were performed by a modification of the procedure of Kuhlman et al., 2004 [Kuhlman et al., Anal. Biochem. 324:183-190, 2004]. Reaction mixtures contained (20 μl): […] test compound, 75 nM Escherichia coli RNAP […] holoenzyme, 20 nM 384 by DNA fragment containing the bacteriophage T4 N25 promoter, 100 μM ATP, 100 μM GTP, 100 μM UTP, 100 μM CTP, 50 mM Tris-HCl, pH 8.0, 100 mM KCl, 10 mM MgCl2, 1 mM DTT, 10 μg/ml bovine serum albumin, and 5.5% glycerol. Reaction components other than DNA and NTPs were pre-incubated for 10 min at 37° C. Reactions were carried out by addition of DNA and incubation for 5 min at 37° C., followed by addition of NTPs and incubation for 60 min at 37° C. DNA was removed by addition of 1 μl 5 mM CaCl2 and 2 U DNaseI (Ambion, Inc.), followed by incubation for 90 min at 37° C. RNA was quantified by addition of 100 μl RiboGreen RNA Quantitation Reagent (Invitrogen, Inc.; 1:500 dilution in Tris-HCl, pH 8.0, 1 mM EDTA), followed by incubation for 10 min at 25° C., followed by measurement of fluorescence intensity [excitation wavelength=485 nm and emission wavelength=535 nm; QuantaMaster QM1 spectrofluorometer (PTI, Inc.)].
Half-maximal inhibitory concentrations (IC50s) were calculated by non-linear regression in SigmaPlot (SPSS, Inc.).

[3] = system: Enterobacter cloacae ATCC 13047; experiment: Antibacterial activity, broth microdilution, Enterobacter cloacae; format: cell-based; settings: Enterobacter cloacae, ATCC13047; minimal concentration resulting in ≧50% inhibition of bacterial growth
Excerpt: as §1

Escherichia coli RNAP, sequence (P0A800 whole entry, the tested form may be a part): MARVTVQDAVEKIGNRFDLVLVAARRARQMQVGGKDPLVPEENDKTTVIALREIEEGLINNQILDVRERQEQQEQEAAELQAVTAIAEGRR
Escherichia coli RNAP, sequence (P00579 whole entry, further chain, the tested form may be a part): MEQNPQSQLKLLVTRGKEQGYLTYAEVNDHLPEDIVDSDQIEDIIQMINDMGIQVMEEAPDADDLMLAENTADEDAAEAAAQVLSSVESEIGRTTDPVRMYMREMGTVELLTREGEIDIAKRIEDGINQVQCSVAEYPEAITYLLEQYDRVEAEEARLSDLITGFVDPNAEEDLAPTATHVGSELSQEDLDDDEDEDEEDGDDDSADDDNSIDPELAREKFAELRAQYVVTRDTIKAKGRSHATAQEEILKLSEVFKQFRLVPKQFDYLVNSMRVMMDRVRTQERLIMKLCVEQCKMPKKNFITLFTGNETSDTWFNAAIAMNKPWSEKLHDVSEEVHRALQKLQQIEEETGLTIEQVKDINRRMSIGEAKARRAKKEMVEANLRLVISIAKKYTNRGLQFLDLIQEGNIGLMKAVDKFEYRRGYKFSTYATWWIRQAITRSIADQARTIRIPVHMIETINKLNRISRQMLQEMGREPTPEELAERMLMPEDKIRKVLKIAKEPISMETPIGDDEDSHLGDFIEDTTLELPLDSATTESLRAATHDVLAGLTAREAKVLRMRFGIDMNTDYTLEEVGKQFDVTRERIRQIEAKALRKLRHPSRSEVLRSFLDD
Escherichia coli RNAP, sequence (P0A8V2 whole entry, the tested form may be a part): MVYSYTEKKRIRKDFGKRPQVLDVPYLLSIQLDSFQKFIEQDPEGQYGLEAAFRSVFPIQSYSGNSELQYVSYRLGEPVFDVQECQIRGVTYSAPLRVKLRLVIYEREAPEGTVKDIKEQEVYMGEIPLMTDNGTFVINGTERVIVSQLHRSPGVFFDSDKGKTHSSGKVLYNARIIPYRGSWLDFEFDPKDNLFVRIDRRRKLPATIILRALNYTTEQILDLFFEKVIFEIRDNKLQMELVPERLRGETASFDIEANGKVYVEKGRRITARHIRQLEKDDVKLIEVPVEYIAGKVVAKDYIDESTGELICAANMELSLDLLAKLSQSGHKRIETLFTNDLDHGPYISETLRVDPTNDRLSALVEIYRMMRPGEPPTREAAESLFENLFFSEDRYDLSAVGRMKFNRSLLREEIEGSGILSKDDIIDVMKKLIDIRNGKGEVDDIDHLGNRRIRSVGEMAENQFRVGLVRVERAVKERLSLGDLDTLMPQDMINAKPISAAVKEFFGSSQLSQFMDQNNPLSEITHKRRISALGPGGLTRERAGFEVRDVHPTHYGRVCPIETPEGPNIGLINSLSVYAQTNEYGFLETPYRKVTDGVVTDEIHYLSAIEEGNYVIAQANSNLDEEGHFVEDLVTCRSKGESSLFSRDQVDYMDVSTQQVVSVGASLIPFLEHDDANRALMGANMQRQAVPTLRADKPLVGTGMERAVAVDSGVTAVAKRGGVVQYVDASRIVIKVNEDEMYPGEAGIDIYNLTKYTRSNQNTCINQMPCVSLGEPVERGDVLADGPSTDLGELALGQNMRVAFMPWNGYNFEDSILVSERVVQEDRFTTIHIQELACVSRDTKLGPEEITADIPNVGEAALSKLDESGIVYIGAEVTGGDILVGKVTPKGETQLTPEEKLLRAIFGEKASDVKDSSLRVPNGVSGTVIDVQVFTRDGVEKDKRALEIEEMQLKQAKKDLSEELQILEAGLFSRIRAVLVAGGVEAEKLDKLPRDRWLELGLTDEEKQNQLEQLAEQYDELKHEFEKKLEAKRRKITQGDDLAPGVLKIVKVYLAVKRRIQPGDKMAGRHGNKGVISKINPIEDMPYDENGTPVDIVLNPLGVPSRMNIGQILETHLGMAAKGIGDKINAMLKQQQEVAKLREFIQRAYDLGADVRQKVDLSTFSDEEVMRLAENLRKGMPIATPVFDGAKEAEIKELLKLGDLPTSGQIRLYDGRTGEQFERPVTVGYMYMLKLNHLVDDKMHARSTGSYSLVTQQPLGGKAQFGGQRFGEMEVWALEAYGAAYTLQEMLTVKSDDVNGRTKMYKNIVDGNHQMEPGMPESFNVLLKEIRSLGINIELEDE
Escherichia coli RNAP, sequence (P0A8T7 whole entry, the tested form may be a part): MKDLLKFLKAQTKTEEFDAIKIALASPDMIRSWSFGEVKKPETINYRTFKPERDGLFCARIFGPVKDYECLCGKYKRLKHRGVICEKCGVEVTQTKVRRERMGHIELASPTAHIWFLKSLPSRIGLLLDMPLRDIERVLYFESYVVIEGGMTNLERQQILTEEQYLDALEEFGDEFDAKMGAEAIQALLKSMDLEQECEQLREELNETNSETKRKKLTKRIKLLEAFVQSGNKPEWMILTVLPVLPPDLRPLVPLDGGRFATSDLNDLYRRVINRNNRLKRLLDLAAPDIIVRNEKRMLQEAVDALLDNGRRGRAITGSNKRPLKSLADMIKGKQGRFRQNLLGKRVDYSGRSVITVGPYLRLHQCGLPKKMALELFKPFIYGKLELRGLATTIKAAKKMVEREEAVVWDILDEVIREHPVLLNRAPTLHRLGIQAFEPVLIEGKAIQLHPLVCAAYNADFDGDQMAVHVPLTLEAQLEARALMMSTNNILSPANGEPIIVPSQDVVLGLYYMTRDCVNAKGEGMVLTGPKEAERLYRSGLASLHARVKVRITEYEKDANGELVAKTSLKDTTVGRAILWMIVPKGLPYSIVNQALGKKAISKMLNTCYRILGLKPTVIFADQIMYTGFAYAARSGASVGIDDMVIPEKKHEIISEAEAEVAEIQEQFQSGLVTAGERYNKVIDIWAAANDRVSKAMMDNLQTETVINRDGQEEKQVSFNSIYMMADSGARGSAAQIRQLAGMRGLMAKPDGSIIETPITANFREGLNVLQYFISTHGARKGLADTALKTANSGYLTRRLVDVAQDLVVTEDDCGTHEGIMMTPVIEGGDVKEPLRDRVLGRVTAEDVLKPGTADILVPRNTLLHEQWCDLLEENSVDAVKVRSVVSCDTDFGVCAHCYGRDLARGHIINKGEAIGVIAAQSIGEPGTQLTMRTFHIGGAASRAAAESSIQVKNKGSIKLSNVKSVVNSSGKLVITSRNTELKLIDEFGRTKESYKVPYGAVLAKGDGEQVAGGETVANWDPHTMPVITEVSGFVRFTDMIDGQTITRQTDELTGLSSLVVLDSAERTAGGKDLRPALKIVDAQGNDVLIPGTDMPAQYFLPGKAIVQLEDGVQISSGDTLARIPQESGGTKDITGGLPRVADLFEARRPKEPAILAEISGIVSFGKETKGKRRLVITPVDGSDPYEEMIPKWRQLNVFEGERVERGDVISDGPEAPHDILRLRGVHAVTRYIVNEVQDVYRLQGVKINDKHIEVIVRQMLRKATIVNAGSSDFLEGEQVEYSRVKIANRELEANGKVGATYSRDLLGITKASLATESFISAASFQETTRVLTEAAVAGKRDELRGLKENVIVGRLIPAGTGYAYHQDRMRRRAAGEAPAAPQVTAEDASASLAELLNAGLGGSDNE
Escherichia coli RNAP, sequence (P0A7Z4 whole entry, further chain, the tested form may be a part): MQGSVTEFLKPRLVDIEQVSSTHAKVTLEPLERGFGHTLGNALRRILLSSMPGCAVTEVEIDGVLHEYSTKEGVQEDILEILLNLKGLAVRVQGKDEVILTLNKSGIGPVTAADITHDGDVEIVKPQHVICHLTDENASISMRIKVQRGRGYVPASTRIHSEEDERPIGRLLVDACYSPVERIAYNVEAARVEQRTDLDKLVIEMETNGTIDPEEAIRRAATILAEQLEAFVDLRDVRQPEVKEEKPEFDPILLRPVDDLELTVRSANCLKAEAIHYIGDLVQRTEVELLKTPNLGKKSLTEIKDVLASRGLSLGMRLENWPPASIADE

| SMILES | MIC50 [1] | IC50 [2] | MIC50 [3] |
| --- | --- | --- | --- |
| CC[C@H](C)[C@H]1NC(=O)[C@@H](NC(=O)[C@H](C)[C@H](O)C(C)C)[C@@H](C)OC(=O)[C@@H]2COC(=O)CNC(=O)/C=C/[C@](O)(CNCCCNC(=O)OC(C)(C)C)[C@@H](C)Oc3ccc(cc3)[C@H](NC1=O)C(=O)N(C)[C@@H](Cc1ccccc1)C(=O)N[C@H]([C@@H](C)O)C(=O)N2 [Sal-NH(CH2)3NHBoc (7)] ({Pentanoyl(2R-Me,3R-OH,4-Me)}-T[d(aIle)][X5][NMeF][d(aThr)]S; ester 1-C; linker 3-6 via G) | 1.56 mg/L (≈ 1.31 µM) | 0.6 µM | 100 mg/L (≈ 83.7 µM) |
| CC[C@H](C)[C@H]1NC(=O)[C@@H](NC(=O)[C@H](C)[C@H](O)C(C)C)[C@@H](C)OC(=O)[C@@H]2COC(=O)CNC(=O)/C=C/[C@](O)(CO)[C@@H](C)Oc3ccc(cc3)[C@H](NC1=O)C(=O)N(C)[C@@H](Cc1ccccc1)C(=O)N[C@H]([C@@H](C)O)C(=O)N2 [Sal-OH (4)] ({Pentanoyl(2R-Me,3R-OH,4-Me)}-T[d(aIle)][X3][NMeF][d(aThr)]S; ester 1-C; linker 3-6 via G) | 0.78 mg/L (≈ 0.751 µM) | 2 µM | 25 mg/L (≈ 24.1 µM) |
| CCCCOC[C@@]1(O)/C=C/C(=O)NCC(=O)OC[C@@H]2NC(=O)[C@@H]([C@@H](C)O)NC(=O)[C@H](Cc3ccccc3)N(C)C(=O)[C@@H](NC(=O)[C@@H]([C@@H](C)CC)NC(=O)[C@@H](NC(=O)[C@H](C)[C@H](O)C(C)C)[C@@H](C)OC2=O)c2ccc(cc2)O[C@@H]1C [Sal-OBu A (5A)] ({Pentanoyl(2R-Me,3R-OH,4-Me)}-T[d(aIle)][X2][NMeF][d(aThr)]S; ester 1-C; linker 3-6 via G) | 1.56 mg/L (≈ 1.43 µM) | 6 µM | 12.5 mg/L (≈ 11.4 µM) |
| CC[C@H](C)[C@H]1NC(=O)[C@@H](NC(=O)[C@H](C)[C@H](O)C(C)C)[C@@H](C)OC(=O)[C@@H]2COC(=O)CNC(=O)/C=C/[C@](O)(CNCCCCCCNC(=O)OC(C)(C)C)[C@@H](C)Oc3ccc(cc3)[C@H](NC1=O)C(=O)N(C)[C@@H](Cc1ccccc1)C(=O)N[C@H]([C@@H](C)O)C(=O)N2 [Sal-NH(CH2)6NHBoc (9)] ({Pentanoyl(2R-Me,3R-OH,4-Me)}-T[d(aIle)][X4][NMeF][d(aThr)]S; ester 1-C; linker 3-6 via G) | 0.78 mg/L (≈ 0.631 µM) | 1 µM | 25 mg/L (≈ 20.2 µM) |
| CCCCOC1(CO)/C=C/C(=O)NCC(=O)OC[C@@H]2NC(=O)[C@@H]([C@@H](C)O)NC(=O)[C@H](Cc3ccccc3)N(C)C(=O)[C@@H](NC(=O)[C@@H]([C@@H](C)CC)NC(=O)[C@@H](NC(=O)[C@H](C)[C@H](O)C(C)C)[C@@H](C)OC2=O)c2ccc(cc2)O[C@@H]1C (stereo partly drawn) [Sal-OBu B (5B)] ({Pentanoyl(2R-Me,3R-OH,4-Me)}-T[d(aIle)][X6][NMeF][d(aThr)]S; ester 1-C; linker 3-6 via G) | – | > 25 µM | – |
